Assay results reported in ChEMBL document CHEMBL1817663, “A synthetic antimicrobial peptidomimetic (LTX 109): stereochemical impact on membrane disruption” (J Med Chem, 2011).
≈ marks a conversion by molar mass, not a printed value.

Tests used:
Staphylococcus aureus = experiment: Antibacterial activity against Staphylococcus aureus ATCC 25923; type: functional
[1] = Toxicity in human erythrocytes assessed as hemolytic activity; type: cell-based, Erythrocyte; details: read-out: HD50 (the source's name)
Escherichia coli = experiment: Antibacterial activity against Escherichia coli ATCC 25922; type: functional
Pseudomonas aeruginosa = experiment: Antibacterial activity against Pseudomonas aeruginosa ATCC 27853; type: functional

SMILES	MIC (Staphylococcus aureus) [µg/mL]	HC50 [1] [µg/mL]	MIC (Escherichia coli) [µg/mL]	MIC (Pseudomonas aeruginosa) [µg/mL]
CC(C)(C)c1cc(C(C)(C)C)c2[nH]c(C(C)(C)C)c(C[C@@H](NC(=O)[C@H](N)CCCNC(=N)N)C(=O)N[C@H](CCCNC(=N)N)C(=O)NCCc3ccccc3)c2c1	3 (≈ 3.81 µM)	120	3 (≈ 3.81 µM)	8 (≈ 10.2 µM)
CC(C)(C)c1cc(C(C)(C)C)c2[nH]c(C(C)(C)C)c(C[C@H](NC(=O)[C@H](N)CCCNC(=N)N)C(=O)N[C@H](CCCNC(=N)N)C(=O)NCCc3ccccc3)c2c1	3 (≈ 3.81 µM)	600	7 (≈ 8.88 µM)	50 (≈ 63.4 µM)
CC(C)(C)c1cc(C(C)(C)C)c2[nH]c(C(C)(C)C)c(C[C@@H](NC(=O)[C@@H](N)CCCNC(=N)N)C(=O)N[C@@H](CCCNC(=N)N)C(=O)NCCc3ccccc3)c2c1	3 (≈ 3.81 µM)	510	9 (≈ 11.4 µM)	30 (≈ 38.1 µM)
CC(C)(C)c1cc(C(C)(C)C)c2[nH]c(C(C)(C)C)c(C[C@H](NC(=O)[C@H](N)CCCNC(=N)N)C(=O)N[C@@H](CCCNC(=N)N)C(=O)NCCc3ccccc3)c2c1	2 (≈ 2.54 µM)	175	3 (≈ 3.81 µM)	10 (≈ 12.7 µM)
CC(C)(C)c1cc(C(C)(C)C)c2[nH]c(C(C)(C)C)c(C[C@H](NC(=O)[C@@H](N)CCCNC(=N)N)C(=O)N[C@@H](CCCNC(=N)N)C(=O)NCCc3ccccc3)c2c1 [LTX-109]	2 (≈ 2.54 µM)	175	3 (≈ 3.81 µM)	8 (≈ 10.2 µM)
CC(C)(C)c1cc(C(C)(C)C)c2[nH]c(C(C)(C)C)c(C[C@H](NC(=O)[C@@H](N)CCCNC(=N)N)C(=O)N[C@H](CCCNC(=N)N)C(=O)NCCc3ccccc3)c2c1	3 (≈ 3.81 µM)	535	10 (≈ 12.7 µM)	50 (≈ 63.4 µM)
CC(C)(C)c1cc(C(C)(C)C)c2[nH]c(C(C)(C)C)c(C[C@@H](NC(=O)[C@@H](N)CCCNC(=N)N)C(=O)N[C@H](CCCNC(=N)N)C(=O)NCCc3ccccc3)c2c1	2 (≈ 2.54 µM)	135	4 (≈ 5.08 µM)	8 (≈ 10.2 µM)
CC(C)(C)c1cc(C(C)(C)C)c2[nH]c(C(C)(C)C)c(C[C@@H](NC(=O)[C@H](N)CCCNC(=N)N)C(=O)N[C@@H](CCCNC(=N)N)C(=O)NCCc3ccccc3)c2c1	4 (≈ 5.08 µM)	605	10 (≈ 12.7 µM)	50 (≈ 63.4 µM)
